Experimental findings from PMC11345829, “Discovery of Potent Isoquinolinequinone N-Oxides to Overcome Cancer Multidrug Resistance” (Journal of Medicinal Chemistry, 2024) are described below.

For experiment [1], the system named is NCI60 tumor cell line panel. The experiment is described as follows: NCI60 five-dose screen, mean over panel. It counts as cell-based, human. An excerpt: (§1) The concentration−response curve generated enables the determination of three criteria, GI50 (drug concentration at which 50% of cell growth is inhibited), total growth inhibition (TGI) and LC50 (drug concentration at which 50% of tumor cells are killed) which can be used to compare effectiveness against any compound tested in the screen since its inception.
(§2) S2.1 NCI Screening Assay Experimental details
(§3) NCI Screening Assay Experimental: Cancer cell growth assays (NCI60 screening) 5,6 One-dose study: Tested compounds were initially solubilised in DMSO, diluted into RPMI 1640 and 5% fetal bovine serum/L-glutamine, and added to 96-well plates containing cell lines previously cultured for 24 h. After 48 h incubation, the media were removed, and the cells were fixed and stained with sulforhodamine B to determine overall percent growth/ total protein content. Unbound dye was removed with five washes of 1% acetic acid, and the plates were allowed to air dry. The dye was then resolubilised in Tris buffer, and the colorimetric absorbance was measured (515 nm). Growth inhibition was measured relative to the response generated from proliferating cells cultured under identical conditions for 48 h. Data from one-dose experiments pertains to the percentage growth at […]
(§4) Five-dose study: Serial 5 × 10-fold dilution from an initial DMSO stock solution was performed, prior to incubation at each individual concentration (10 nM, 100 nM, 1 μM, 10 μM and 100 μM). Using seven absorbance measurements (time zero (Tz), control growth (C), and test growth in the presence of drug at the five concentration levels (Ti)), the percentage growth was calculated at each of the drug concentrations levels. Percentage growth inhibition was calculated as: [(Ti − Tz)/(C − Tz)] × 100 for concentrations for which Ti ≥ Tz, [(Ti − Tz)/Tz] × 100 for concentrations for which Ti < Tz. Three dose response parameters were calculated for each experimental agent. […]
(§5) was calculated from [(Ti − Tz)/(C − Tz)] × 100 = 50, which is the drug concentration resulting in a 50% reduction in the net protein increase (as measured by sulforhodamine B staining) in control cells during the drug incubation. The drug concentration resulting in total growth inhibition (TGI) was calculated from Ti = Tz. The LC50 (concentration of drug resulting in a 50% reduction in the measured protein at the end of the drug treatment as compared to that at the beginning) indicating a net loss of cells following treatment was calculated from [(Ti − Tz)/Tz] × 100 = −50. Values were calculated for each of these three parameters if the level of activity was reached; however, if the effect was not reached or was exceeded, the value for that parameter was expressed as greater or less than the maximum or minimum concentration tested.

The subject of a further experiment is NCI-H460/R. The experiment is described as follows: SRB cell growth inhibition assay. It counts as cell-based, human. The conditions noted are these: for selectivity ratio NSCLC: GI50 sensitive NCI-H460 / GI50 MDR NCI-H460/R; for GI50: Homo sapiens, NCI-H460, 48 h, NSCLC MDR, mean ± SEM; for GI50 / GI50 concentration range against MDR NCI-H460/R: SRB assay; for GI50 concentration range against MDR NCI-H460/R: in words. Here is the method:
Two distinct pairs of counterpart drug-sensitive and MDR human tumor cell lines were used, namely the non-small lung cancer (NSCLC) NCI-H460 (same cell line as in the NCI screen) and its MDR counterpart cell line NCI-[…] and the colorectal cancer DLD1 and its MDR counterpart cell line DLD1-TxR (Table 3). The screening was performed using the SRB assay, and the GI50 for each compound was determined by interpolation on the attained concentration-response curves and compared with NCI60 screening data (SI, Figures S62-S63; Table S21). Two pairs of drug-sensitive and multidrug-resistant (MDR) cell lines from human nonsmall cell lung cancer (NSCLC), NCI-H460 and NCI-[…], and colorectal cancer, DLD1 and DLD1-TxR, kindly provided by Dr M. […] The A549 cell line was maintained in Dulbecco's Modified Eagle Medium (DMEM) supplemented with 4.5 g/L Glucose with UltraGlutamine with sodium pyruvate (Lonza, Basel Stücki, Switzerland), enriched with 10% fetal bovine serum (FBS; Biowest, Nuaillé, France). […] For the sulforhodamine B (SRB) and 3D cell culture assays, the media were supplemented with 5% FBS. The remaining experiments were performed with medium supplemented with 10% FBS. […] The SRB assay was performed as previously described.[78],[79] Briefly, after fixing cells with 10% (w/v) ice-cold trichloroacetic acid (Merck Life Science), the proteins were stained with 0.4% of SRB (Merck Life Science) in acetic acid (Merck Life Science). Following washing steps in acetic acid, the bound dye was solubilized with 10 mM Tris base solution (Merck Life Science). Absorbance was measured at 510 nm in a multiplate reader (Synergy Mx, Biotek Instruments Inc., Winooski, Vermont, USA) using the Gen5 software (Biotek Instruments Inc.).

Another experiment has as its system COLO-205. Kind of experiment: NCI60 five-dose GI50. Format: cell-based. The conditions noted are these: Homo sapiens, colon.
Description: as §1, §2, §3, §4, §5

For a further experiment, the system named is K-562. The experiment is described as follows: NCI60 five-dose GI50. Format: cell-based. Conditions: Homo sapiens, K562, five dose; leukemia.
Description: as §1, §2, §3, §4, §5

A further experiment deals with LOX-IMVI. The experiment is described as follows: NCI60 five-dose GI50. Format: cell-based. The conditions noted are these: Homo sapiens, melanoma.
Description: as §1, §2, §3, §4, §5

The next experiment has as its system MCF-7. The experiment is described as follows: NCI60 five-dose GI50. Format: cell-based. Conditions: Homo sapiens, MCF7, breast.
Description: as §1, §2, §3, §4, §5

Another experiment deals with NCI-ADR/RES. Kind of experiment: NCI60 five-dose GI50. It counts as cell-based. Conditions: Homo sapiens.
Description: as §1, §2, §3, §4, §5

Another experiment has as its system OVCAR-3. The experiment is described as follows: NCI60 five-dose GI50. It counts as cell-based. Conditions: Homo sapiens, ovarian.
Description: as §1, §2, §3, §4, §5

For another experiment, the system named is UACC-62. Kind of experiment: NCI60 five-dose GI50. Format: cell-based. The conditions noted are these: Homo sapiens, melanoma.
Description: as §1, §2, §3, §4, §5

For another experiment, the system named is OVCAR-8. The experiment is described as follows: NCI60 five-dose GI50. Format: cell-based. Conditions: Homo sapiens, ovarian.
Description: as §1, §2
as §3, with “nm).” for “nm). Growth inhibition was measured relative to the response generated from proliferating cells cultured under identical conditions for 48 h. Data from one-dose experiments pertains to the percentage growth at”
as §4, §5

Setting [2] is: Homo sapiens, five dose, across 57-60 cell lines (number given per compound), read-out: Mean of GI50 as Log 10 Concentration (SD) (converted).
Setting [3] is: five dose, mean over 52 human tumor cell lines common to all analogues, read-out: mean GI50.

Read-outs that look alike come from different tables or passages of the source.

Consider `COC(=O)c1c2c(c(C)[n+]([O-])c1C)C(=O)C=C(NCc1ccccc1)C2=O` [Compound 2], for which, in [1] (2 versus 1), the “fold more potent average GI50 than 1” value was 2.8 fold. In addition, in the experiment on NCI-H460/R, the “selectivity ratio NSCLC” value is listed as 1.7, the GI50 is 830 ± 20 nM and the “GI50 concentration range against MDR NCI-H460/R” value (“GI50 concentration range” below) is “nanomolar range”.

Take `COC(=O)c1c2c(c(C)[n+]([O-])c1C)C(=O)C(NCc1ccc(F)cc1)=CC2=O` [Compound 4]: the GI50 is 1410 nM in [1] (setting [2]); 1540 nM in experiment [1] (setting [3]); 376 nM in the experiment on COLO-205; 2430 nM in the experiment on K-562; 1940 nM in the experiment with LOX-IMVI; 1110 nM in the experiment with MCF-7. For the same compound, the GI50 in the experiment with NCI-ADR/RES (MDR ovarian) turned out to be 1680 nM; in the experiment on OVCAR-3, 319 nM; in the experiment on UACC-62, 1250 nM; in the experiment with OVCAR-8 it was 1590 nM; in the experiment with NCI-H460/R, 2250 ± 270 nM. For the same compound, the “selectivity ratio NSCLC” value with NCI-H460/R amounted to 1.2.

Turning to `COC(=O)c1c2c(c(C)[n+]([O-])c1C)C(=O)C=C(NCc1ccc(F)cc1)C2=O` [Compound 5], the GI50 is 583 nM in experiment [1] (setting [2]); 760 nM in experiment [1] (setting [3]); 260 nM in the experiment with COLO-205; 352 nM in the experiment with K-562; 226 nM in the experiment with LOX-IMVI; 296 nM in the experiment with MCF-7. Moreover, the GI50 stood at 487 nM in the experiment on NCI-ADR/RES (MDR ovarian); 240 nM in the experiment on OVCAR-3; 229 nM in the experiment on UACC-62; 406 nM in the experiment on OVCAR-8; 360 ± 110 nM in the experiment with NCI-H460/R. In addition, the “selectivity ratio NSCLC” value with NCI-H460/R came out at 1.6. In addition, in the experiment with NCI-H460/R, the “GI50 concentration range” value is given as “nanomolar range”.

In the case of `COC(=O)c1c2c(c(C)[n+]([O-])c1C)C(=O)C(NCc1ccc(O)cc1)=CC2=O` [Compound 20], the GI50 is 1310 nM in experiment [1] (setting [2]); 1580 nM in experiment [1] (setting [3]); 579 nM in the experiment with COLO-205; 1630 nM in the experiment on K-562; 938 nM in the experiment on LOX-IMVI; 416 nM in the experiment on MCF-7. Moreover, the GI50 in the experiment with NCI-ADR/RES (MDR ovarian) amounted to 2200 nM; in the experiment on OVCAR-3, 266 nM; in the experiment with UACC-62 it was 1360 nM; in the experiment on OVCAR-8, 1080 nM; in the experiment on NCI-H460/R it was 4840 ± 740 nM. For the same compound, in the experiment on NCI-H460/R, the “selectivity ratio NSCLC” value is 1.2.

Consider `COC(=O)c1c2c(c[n+]([O-])c1C)C(=O)C=CC2=O` [Compound 23], for which the GI50 in experiment [1] (setting [2]) is 2490 nM; in experiment [1] (setting [3]) it was 2150 nM; in the experiment with COLO-205, 1850 nM; in the experiment on K-562, 2510 nM; in the experiment on LOX-IMVI, 1960 nM; with MCF-7, 1650 nM. The GI50 in the experiment on NCI-ADR/RES (MDR ovarian) worked out at 3270 nM; in the experiment with OVCAR-3 it was 320 nM; in the experiment on UACC-62 it was 1810 nM; in the experiment on OVCAR-8 it was 2930 nM; with NCI-H460/R, 17900 ± 3360 nM. Moreover, in the experiment on NCI-H460/R, the “selectivity ratio NSCLC” value came out at 2.1.

For `COC(=O)c1c2c(c[n+]([O-])c1C)C(=O)C(NCc1ccccc1)=CC2=O` [Compound 24], the GI50 in [1] (setting [2]) is 579 nM; in [1] (setting [3]), 690 nM; with COLO-205, 330 nM; in the experiment on K-562, 620 nM; in the experiment on LOX-IMVI, 300 nM; in the experiment on MCF-7, 200 nM. Further, the GI50 is 310 nM in the experiment on NCI-ADR/RES (MDR ovarian); 270 nM in the experiment on OVCAR-3; 350 nM in the experiment with UACC-62; 320 nM in the experiment with OVCAR-8; 380 ± 20 nM with NCI-H460/R. Further, the “selectivity ratio NSCLC” value in the experiment on NCI-H460/R is recorded as 2. Moreover, in the experiment on NCI-H460/R, the “GI50 concentration range” value was “nanomolar range”.

In the case of `COC(=O)c1c2c(c[n+]([O-])c1C)C(=O)C=C(NCc1ccccc1)C2=O` [Compound 25], the GI50 in experiment [1] (setting [2]) is 190 nM; in experiment [1] (setting [3]), 210 nM; in the experiment on COLO-205, 160 nM; in the experiment on K-562, 250 nM; in the experiment with LOX-IMVI it was 190 nM; with MCF-7, 150 nM. The GI50 with NCI-ADR/RES was determined as 227 nM; in the experiment with NCI-ADR/RES (MDR ovarian), 230 nM; in the experiment on OVCAR-3, 48 nM; with UACC-62 it was 160 nM; in the experiment on OVCAR-8, 240 nM; in the experiment with NCI-H460/R, 340 ± 30 nM. For the same compound, the “share of FDA approved anticancer agents outperformed in mean LC50” value in [1] (comparison with ref 45) stood at 86%. For the same compound, in [1] (comparison with ref 45), the “share of FDA approved anticancer agents with higher mean GI50” value came out at 83%. The “cell lines with ≤200 nM GI50” value in experiment [1] (five dose, number of cell lines out of 60) is 31/60. For the same compound, the “selectivity ratio NSCLC” value with NCI-H460/R is on record as 1. The “GI50 concentration range” value in the experiment on NCI-H460/R is listed as “nanomolar range”.

With `COc1cccc2c1C(=O)c1c(O)c3c(c(O)c1C2=O)C[C@@](O)(C(=O)CO)C[C@@H]3O[C@H]1C[C@H](N)[C@H](O)[C@H](C)O1` [doxorubicin, reference compound], the GI50 in the experiment with NCI-H460/R was found to be 2460 ± 40 nM.
